Laboratory results reported in patent US20040146520A1, “Materials and methods relating to immune suppression” (priority 2001, published 2004).
Where a SMILES comes first, the peptide text is derived from it. The star is where a group is joined. Cbz = O=C(OCc1ccccc1)*; CH2F = FC*

What was measured:
[1] = test system: A2+ B cell targets; assay: Gag-specific CTL assay, apoptosis of peptide-pulsed targets (Annexin-V); details: peptide-pulsed BCL, 12-hour incubation, FIG. 1b
[2] = test system: Flu-specific (MP58-66) CTL; assay: CTL apoptosis induced by peptide/MHC multimeric beads; assay type: cell-based, human; details: IL-2 20 U/ml, anti-CD28 1 μg/ml, z-VAD 10 μM; 12 hrs
[3] = target: CD8-associated p56lck (Homo sapiens, UniProt P06239); details: cited from earlier work
Sequence of CD8-associated p56lck (P06239 whole entry): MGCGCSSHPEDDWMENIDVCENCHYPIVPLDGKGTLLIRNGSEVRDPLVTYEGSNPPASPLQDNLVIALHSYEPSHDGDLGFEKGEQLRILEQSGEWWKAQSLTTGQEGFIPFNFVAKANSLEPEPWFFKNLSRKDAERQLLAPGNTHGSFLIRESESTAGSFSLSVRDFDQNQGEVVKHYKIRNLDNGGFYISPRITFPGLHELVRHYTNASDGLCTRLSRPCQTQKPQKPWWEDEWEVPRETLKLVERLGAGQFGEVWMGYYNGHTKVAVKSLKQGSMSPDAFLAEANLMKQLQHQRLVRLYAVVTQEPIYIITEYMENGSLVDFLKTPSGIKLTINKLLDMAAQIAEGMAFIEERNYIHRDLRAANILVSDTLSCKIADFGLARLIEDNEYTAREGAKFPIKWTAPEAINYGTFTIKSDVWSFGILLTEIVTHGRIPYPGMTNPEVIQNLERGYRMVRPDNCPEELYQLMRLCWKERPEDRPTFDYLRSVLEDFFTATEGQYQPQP

SLFNTVATL [Mutant 3F]
target cell death, gag variant peptides [1]: sensitising

CC(NC(=O)C(NC(=O)OCc1ccccc1)C(C)C)C(=O)NC(CC(=O)O)C(=O)CF (stereo not drawn) [z-VAD] (Cbz-Val-Ala-Asp-CH2F; configuration not given here)
effect of added reagent on multimer-induced CTL death [2]: blocked

CO[C@H]1[C@@H](OC)C[C@H](C)[C@@H](OC)C2=CC(=O)C=C(NC(=O)/C(C)=C/C=C\[C@H](OC)[C@@H](OC(N)=O)/C(C)=C/[C@@H]1C)C2=O [herbimycin A]
effect on FasL-mediated cytotoxicity [3]: little effect
